Assays:
Type in all cases: cell-based
erg3 = molecular target: T1, erg3 (Rattus norvegicus, UniProt O54852); test: Blockade of cloned erg3 channel in oocytes; details: mean±s.e.m.
T1 construct: expressed in transfected cells; host or cells: oocytes (Xenopus)
T1 sequence (O54852 1-1195): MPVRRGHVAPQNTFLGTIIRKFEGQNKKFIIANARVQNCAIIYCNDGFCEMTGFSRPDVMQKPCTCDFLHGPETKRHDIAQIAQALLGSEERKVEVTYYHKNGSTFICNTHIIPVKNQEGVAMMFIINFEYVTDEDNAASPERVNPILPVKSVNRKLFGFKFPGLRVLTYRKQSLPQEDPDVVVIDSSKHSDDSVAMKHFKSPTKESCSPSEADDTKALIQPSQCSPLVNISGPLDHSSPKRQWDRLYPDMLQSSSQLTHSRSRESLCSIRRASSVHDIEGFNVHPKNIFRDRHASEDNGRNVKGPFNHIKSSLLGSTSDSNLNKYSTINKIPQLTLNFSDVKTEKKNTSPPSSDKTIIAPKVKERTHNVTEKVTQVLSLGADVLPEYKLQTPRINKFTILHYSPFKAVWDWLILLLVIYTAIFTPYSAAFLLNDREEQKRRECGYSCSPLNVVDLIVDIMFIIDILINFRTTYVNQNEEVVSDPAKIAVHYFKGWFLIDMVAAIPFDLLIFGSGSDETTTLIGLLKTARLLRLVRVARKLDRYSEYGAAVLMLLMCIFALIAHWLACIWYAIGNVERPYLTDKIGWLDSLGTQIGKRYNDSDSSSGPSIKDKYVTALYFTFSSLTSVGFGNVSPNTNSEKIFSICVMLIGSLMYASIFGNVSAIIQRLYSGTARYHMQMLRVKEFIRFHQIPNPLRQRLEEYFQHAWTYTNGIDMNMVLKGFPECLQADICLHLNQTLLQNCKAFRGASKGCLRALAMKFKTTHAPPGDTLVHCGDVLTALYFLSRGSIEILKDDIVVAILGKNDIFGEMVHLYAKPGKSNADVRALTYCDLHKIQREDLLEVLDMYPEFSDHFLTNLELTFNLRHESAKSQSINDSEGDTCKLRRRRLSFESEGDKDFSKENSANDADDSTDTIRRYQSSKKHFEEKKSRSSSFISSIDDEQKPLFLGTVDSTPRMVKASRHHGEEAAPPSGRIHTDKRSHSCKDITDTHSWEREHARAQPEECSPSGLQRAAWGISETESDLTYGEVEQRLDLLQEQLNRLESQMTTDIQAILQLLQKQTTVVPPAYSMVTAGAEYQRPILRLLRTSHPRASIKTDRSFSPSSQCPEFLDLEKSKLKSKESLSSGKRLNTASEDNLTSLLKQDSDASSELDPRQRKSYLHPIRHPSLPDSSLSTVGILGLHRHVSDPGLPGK

elk1 = molecular target: T2, elk1 (Rattus norvegicus, UniProt Q9QWS8); test: Blockade of cloned elk1 channel in oocytes
T2 construct: expressed in transfected cells; host or cells: oocytes (Xenopus)
T2 sequence (Q9QWS8 1-1102): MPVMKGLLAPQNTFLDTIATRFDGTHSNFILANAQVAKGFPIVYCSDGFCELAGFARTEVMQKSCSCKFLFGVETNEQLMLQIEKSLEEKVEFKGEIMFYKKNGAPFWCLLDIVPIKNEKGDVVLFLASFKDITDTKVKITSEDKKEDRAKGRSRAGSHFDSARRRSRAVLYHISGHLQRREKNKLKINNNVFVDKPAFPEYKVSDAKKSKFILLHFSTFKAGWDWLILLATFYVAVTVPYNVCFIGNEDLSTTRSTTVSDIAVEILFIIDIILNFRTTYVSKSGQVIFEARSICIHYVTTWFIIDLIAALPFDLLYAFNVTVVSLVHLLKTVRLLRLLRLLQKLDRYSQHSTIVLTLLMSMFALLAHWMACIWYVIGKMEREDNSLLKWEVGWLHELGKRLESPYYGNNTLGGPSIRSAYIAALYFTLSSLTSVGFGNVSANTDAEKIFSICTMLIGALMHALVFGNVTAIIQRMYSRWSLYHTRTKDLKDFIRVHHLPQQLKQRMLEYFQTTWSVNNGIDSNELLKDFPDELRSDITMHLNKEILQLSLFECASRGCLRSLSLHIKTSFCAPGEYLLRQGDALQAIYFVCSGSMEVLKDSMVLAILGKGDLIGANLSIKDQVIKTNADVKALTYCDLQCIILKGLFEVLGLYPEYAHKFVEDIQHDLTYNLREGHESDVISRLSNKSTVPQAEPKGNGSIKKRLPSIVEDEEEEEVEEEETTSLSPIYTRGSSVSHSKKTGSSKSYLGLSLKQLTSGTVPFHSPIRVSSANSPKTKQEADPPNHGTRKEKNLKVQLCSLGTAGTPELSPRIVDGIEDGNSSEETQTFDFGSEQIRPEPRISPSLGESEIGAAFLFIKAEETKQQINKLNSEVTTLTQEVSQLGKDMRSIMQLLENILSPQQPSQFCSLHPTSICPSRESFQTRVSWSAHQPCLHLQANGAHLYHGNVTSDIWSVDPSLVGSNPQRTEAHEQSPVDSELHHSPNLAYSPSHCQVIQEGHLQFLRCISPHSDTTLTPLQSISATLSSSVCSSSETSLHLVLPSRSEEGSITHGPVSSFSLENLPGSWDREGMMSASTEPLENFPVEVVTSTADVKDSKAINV

KCNQ2 = KCNQ2 (Homo sapiens, UniProt O43526, DEL417-446); test: Blockade of KCNQ2 channels expressed in Xenopus oocytes; parameters: Full-length KCNQ2 cDNAs were amplified from adult human brain cDNA; expressed in transfected cells; host or cells: Xenopus oocytes injected with cRNA; details: oocytes; mean±s.e.m.
Protocol: Method: Full-length KCNQ2 cDNAs were amplified from adult human brain cDNA using the following primers ([…], […]) with the Expand Fidelity enzyme mixture (Boehringer Mannheim, Indianapolis). […] This region is also alternatively spliced in the KCNQ2 cDNA clone described by Biervert et al. (1998). Preparation, injection of cRNA and recording from oocytes was performed at room temperature as described previously (Dixon et al. 1996). The standard extracellular recording solution contained: 82 mM NaCl, 2 mM KCl, 1.8 mM CaCl2, 1 mM MgCl2, and 5 mM Na-HEPES (pH 7.6). Data collection and analysis were performed using pClamp software (Axon Instruments, Foster City, Calif.).
IC50 values are all expressed in μM, mean±s.e.m.

Row | IC50 (erg3) [µM] | IC50 (elk1; oocytes) [µM] | IC50 (KCNQ2) [µM] | IC50 (elk1; at +30 mV) [µM] | IC50 (elk1; at −20 mV) [µM] | IC50 (elk1; step to −10 mV, voltage dependent) [µM] | SMILES
1 | > 100 | > 100 | 0.71 ± 0.07 |  |  |  | O=C1c2ccccc2C(Cc2ccncc2)(Cc2ccncc2)c2ccccc21 [XE991, 10,10-bis(4-pyridinylmethyl)-9(10H)-anthracenone]
2 | 85 ± 5 |  | 4.8 ± 0.6 | 144 | 26 | 37 ± 4 | O=C1N(c2ccccc2)c2ccccc2C1(Cc1ccncc1)Cc1ccncc1 [Linopirdine, 3,3-bis(4-pyridinylmethyl)-1-phenylindolin-2-one]

From patent US20040175691A1, “Use of the KCNQ2 and KCNQ3 genes for the discovery of agents useful in the treatment of neurological disorders” (priority 1998, published 2004)
